The values below come from US9669005B2, “Use of naringenin in preparing drugs for preventing and/or treatment abdominal aortic aneurysm” (priority 2013, dated 2017).

Common to all, as to type: in vivo
The nature of series [1]: Body weight and blood fat of CaPO4 treated C57BL/6J mice. The procedure:
Gavage was started at the first day after surgery, and water, naringenin (50 mg/kg) (Sigma-Aldrich, St. Louis, Mo.) or doxycycline (100 mg/kg) (Sigma-Aldrich, St. Louis, Mo.) gavage were given on mice daily. Materials were removed from the mice 7 days after gavage. Mice were weighed, and blood was drawn from inner canthus by capillary, after centrifuged for 10 minutes at 6000 rotations, the supernatant was removed and blood fat was measured (kit is purchased from BIOSINO company). Then perfusion and washing were performed on mice using PBS. Blood vessels were separated, and four blood vessels were randomly chosen for each group for photographing. The results were shown in FIG. 1, wherein, NaCl was the group of daubing NaCl (n=11), CaPO4 was the group of daubing CaPO4 plus water feed (n=12), CaPO4+NGN was the group of daubing CaPO4 μlus naringenin gavage (n=11), and CaPO4+Dox was the group of daubing CaPO4 μlus doxycycline gavage (n=11).

The next series deals with IL-6 and MCP-1. The series is described as follows: Immunohistochemical staining of IL-6 and MCP-1 on vascular walls, CaPO4 model. The following applies: CaPO4 daubed mice; immunohistochemistry; FIG. 3B. The source says:
IL-6 and MCP-1 are proinflammatory chemotactic factors and cytokines, and they are mainly from vascular walls. MCP-1 can release more matrix metalloproteinase to degrade matrix by recruiting leukocytes, which mediats vascular remodeling and expanding (MacTaggart J N et al. Deletion of ccr2 but not ccr5 or cxcr3 inhibits aortic aneurysm formation Surgery. 2007; 142:284-288; Ishibashi M et al. Bone marrow-derived monocyte chemoattractant protein-1 receptor ccr2 is critical in angiotensin ii-induced acceleration of atherosclerosis and aneurysm formation in hypercholesterolemic mice. Arterioscl throm vasc biol. 2004; 24: e174-178), while IL-6 can enlarge effect of MCP-1 to aggravate the onset of abdominal aortic aneurysms (Tieu B C et al. An adventitial il-6/mcpl amplification loop accelerates macrophage-mediated vascular inflammation leading to aortic dissection in mice. J Clin Invest. 2009; 119:3637-3651). We used histochemical staining to identify the expressions of IL-6 and MCP-1 on vascular walls. IL-6 and MCP-1 were immunohistochemical results of anti-IL-6 and anti-MCP-1 specific antibodies (purchased from Abcam, Cambridge Company, UK), respectively.

The subject of series [2] is abdominal aortic aneurysms in angiotensin II induced ApoE-/- mice. Briefly: Abdominal aortic aneurysm model in ApoE-/- mice induced by angiotensin II submerging pump, naringenin gavage. The following applies: AngII ApoE-/- mice. The procedure: Firstly, 16 weeks of male ApoE^−/− mice were randomly divided into two groups, control group (n=16) and naringenin group (n=15), respectively. And then they were anesthetized by 0.1% pentobarbital sodium, and mini pumps (model 2004, Alzet, Cupertino, Calif.) were subcutaneously submerged; angiotensin II (Sigma-Aldrich, St. Louis, Mo.) dissolved with normal saline was added to the pump, such that drugs can be continuously administrated for 4 weeks at a dosage of 1000 ng/kg/min. From the first day after surgery, gavage was daily performed to mice at constant time points, water gavage in control group, and naringenin gavage (50 mg/kg) in naringenin group. Materials were removed 28 days after gavage. Blood pressure of the mice was measured by tail cuff method with BP-89A sphygmomanometer (Beijing Softron Biotechnology Co., Ltd.), and the mice were weighted. Blood was drawn in inner canthus of the mice, and after centrifuged for 10 minutes at 6000 rotations, supernatant was removed and the blood fat levels of the mice were measured. […] Aortas of mice were fixed and separated. AngII group was the control group of angiotensin II submerging pump and water gavage. AngII+NGN group was the group of angiotensin II submerging pump and naringenin gavage. Four blood vessels were randomly selected in each group for photographing. The results were shown in FIG. 5A, the former two blood vessels in AngII group have significant bulges at suprarenal site, exceeding 50% of the diameters of the blood vessels at adjacent site, and arterial aneurysms are formed. […] Next, the statistics of the onset of abdominal aortic aneurysms in all the mice was performed. In the control group of angiotensin II submerging pump and water gavage, only one of 16 mice died from the fracture of aortic dissection within the first 7 days after submerging pump, another one died from the fracture of abdominal aortic aneurysms 1 week after submerging pump, abdominal aortic aneurysms were generated in 6 of the remaining 14 mice at 28th day after submerging pump. Therefore, in control group of angiotensin II submerging pump, aortic aneurysms were formed in 8 of 16 mice, that is, the morbidity of aortic aneurysms was 50%. And in the group of angiotensin II submerging pump and naringenin gavage, 1 of 15 mice died from the fracture of aortic aneurysms, only 1 of the remaining mice suffered from abdominal aortic aneurysms at 28 day after submerging pump. Therefore, in the group of angiotensin II submerging pump and naringenin gavage, only two of 15 mice suffered from aortic aneurysms, that is, the morbidity of aortic aneurysms was 13.3%. […] After removing materials from mice, aortas were perfused with 4% paraformaldehyde and fixed, the suprarenal aorta from diaphragm muscle to renal artery branch on the right side was equally divided into two segments, which were put into liquid nitrogen to freeze for 30 s after embedded with OCT. Serial sections were performed, the thickness of each section was 6 μm, with the spacing of 300 μm, and continuous 16 sections were performed on each mouse. H.E. staining was used to determine the diameters of abdominal aortas of mice, the diameters were measured and the maximum diameter was selected therefrom. The maximum diameter was compared with the diameter of adjacent site, and if the maximum diameter exceeds 50% of diameter of the adjacent site, it can be considered that the mouse suffered from an abdominal aortic aneurysm. […] We used Gomori staining to determine the fracture situation of the elastic lamina of abdominal aortas of mice, and statistics was performed. The results were shown in FIG. 6B, the fracture of the elastic lamina of abdominal aortas of mice decreases after naringenin gavage, and the mice detected in each group are all 6 mice. The data in Figure are an average value ±standard deviation.

Series [3] relates to inflammatory cell (macrophage and leukocyte) in adventitia. Briefly: Immunofluorescent staining of inflammatory cells (Mac3, CD45), angiotensin II model. The conditions noted are these: AngII ApoE-/- mice; naringenin gavage vs water; FIG. 7A. The source says:
CD45 and Mac3 were results of immunofluorescent staining on […].

In another series the test system is metalloproteinase. The series is described as follows: In situ zymography, angiotensin II model. The conditions noted are these: AngII ApoE-/- mice; naringenin gavage; FIG. 8A. The procedure:
After the aortas of mice were perfused with PBS, fresh tissue was directly embedded with OCT, put in liquid nitrogen for freezing, and then continuously sliced. Firstly, washing was performed with PBS for 3 min, thrice. A fluorescently labeled DQ-gelation-FITC substrate (Sigma-Aldrich, St. Louis, Mo.) was incubated 1 hour at 37° C. Under normal circumstances, fluorescent label for the substrate was packaged, so there is no fluorescence; after activated gelatinase degraded gelatin, green fluorescent label would be exposed. After the section was incubated, washing was performed with PBS for 3 min, thrice, and then the section was sealed. Immunofluorescence confocal microscopy was used to irradiate. The stronger fluorescence was, which means, the stronger activity of matrix metalloproteinase was.

The mark [4] stands for this setting: CaPO4 treated C57BL/6J mice, gavage 7 days, naringenin 50 mg/kg, doxycycline 100 mg/kg.

For the compound `O=C1C[C@@H](c2ccc(O)cc2)Oc2cc(O)cc(O)c21` [naringenin], the “body weights and blood fat levels” value in series [1] (C57BL/6J mice, naringenin gavage 50 mg/kg, 7 days) was “does not affect”. In series [1] (setting [4]), this compound came in with a Body weight of 20.1 ± 1.41 g, a Cholesterol of 3.53 ± 0.45 mmol and a Triglyceride of 0.97 ± 0.22 mmol. The “expression of IL-6 and MCP-1 in adventitia in vascular walls” value with IL-6 and MCP-1 is “reduce their expressions”. The “morbidity of aortic aneurysms” value in series [2] (naringenin 50 mg/kg gavage 28 days, 15 mice, control 50%) is listed as 13.3%. The “formation of abdominal aortic aneurysms (vascular photos)” value in series [2] (naringenin 50 mg/kg gavage 28 days, FIG. 5A) is given as “reduce the formation of abdominal aortic aneurysms”. Further, the “maximum diameter of suprarenal abdominal aortas (H.E. staining)” value in series [2] (naringenin gavage, 11 mice per group, FIG. 6A) is listed as “significantly decreases”. Also, in series [2] (naringenin gavage, FIG. 6B), the “fracture of the elastic lamina of abdominal aortas (Gomori staining)” value is “decreases”. In series [2] (naringenin gavage, of 15 mice), the “Dissection (number of mice)” value worked out at 0, the “Fracture (number of mice)” value came to 1 and the “Without aneurysm (number of mice)” value was 13. Also, the “aneurysm (number of mice)” value in series [2] (naringenin gavage, of 15 mice, 28th day) turned out to be 1. Also, in series [3], the “infiltration of inflammatory cell (macrophage and leukocyte) in adventitia” value is reported as “significantly reduce”. Moreover, in the series with metalloproteinase, the “activated metalloproteinase (in situ zymography)” value is “significantly decreases”.
